From EP1861101B1, “USE OF AMIDES OF SULFADIMIDINE FOR THE TREATMENT OF INTESTINAL DISEASES IN VETERINARY SCIENCE” (priority 2005, dated 2006)
Where two headings read alike, the source gives them in different places.

How the values were obtained:
[1] = growth feed for swine; cited from earlier work
digestive syndrome = assay: prevention and treatment of digestive syndrome (colibacillosis and enterotoxemia) in rabbit farming; format: in vivo; details: rabbits
Source text: Given the complex relations existing between colibacillosis and enterotoxemia, they are currently included under the designation "digestive syndrome" for practical purposes. Treatment with an association of systemic drugs with drugs acting exclusively on the intestinal tract is indicated.
In the following table 2 the use of SMAA is compared to the products used most often in rabbit farming for the prevention and treatment of digestive syndrome: Table 2

[2] = depletion of residue in lambs fed treated feed until the day of slaughter; format: in vivo; details: lambs that consumed treated feed until the day of slaughter
Eimeria = assay: field tests, treatment of coccidiosis in broilers through feed; format: in vivo; details: 200 to 400 g/metric ton of feed; given in the first three weeks of life, then replaced by another coccidiostatic
Procedure: SMAA was used for the treatment of coccidiosis in broilers through feed, at doses ranging from 200 to 400 g/metric ton of feed. The best results in terms of mortality, weight gain, and conversion index have been obtained when SMAA is administered in the first three weeks of life of the chickens, and then replaced by another coccidiostatic. To this effect, our experience confirms the observations that an even improved productivity is obtained when two different coccidiostatics are alternated in the growth period.

C. perfringens = format: in vivo, lambs; details: 500 g/ton of feed
Serpulina hyodisenteriae = assay: SMAA in feed against swine dysentery; format: in vivo; details: 550-600 g per ton of feed
Source text: Although establishing a dose for the administration of a therapeutic molecule is always difficult, because therapeutic efficacy not depend only on its efficacy at a given dose, but also on the state of the animals, management, sanitary conditions of operation, feeding etc., good results were obtained with SMAA in swine at doses of 550-600 g of SMAA per ton of feed. The association of SMAA with macrolides is interesting, but it is extremely important to consider the withdrawal period of the macrolide to avoid the accumulation of residues in carcasses.

solubility in water = format: physicochemical
Source text: If the amide is the amide of maleic acid (SMAA), the amide comprises one carboxylic group. […] The free acids of the compound of the invention are essentially water insoluble and electrically neutral compounds, which become soluble in water when the free carboxyl group or other groups in the compound are converted to the carboxylate form by addition of an equivalent amount of an appropriate base, for instance an alkali or ammonium hydroxide or amine or alkanolamine.

[3] = system: Clostridium, E. coli, Salmonella, and Eimeria parasites; assay: treatment of ovine livestock with SMAA in food; format: in vivo; details: even at high doses
Source text: In general, ovine livestock according to the invention is preferably treated with SMAA in food. The invention is especially useful for the prevention of enteric bacterial processes, mainly due to Clostridium, E. coli, Salmonella, and Eimeria parasites. […] Incompatibilities with other medicaments are unknown. It is not necessary to establish a withdrawal period before slaughter.
According to the invention, the association of SMAA-chlortetracycline is preferred when the pathology is located fundamentally in the digestive tract, and the association of SMAA-oxytetracycline when a preventive action at the enteric and respiratory level is sought. The most habitual doses range from 200 and 400 g/ton of feed, although it can be raised to 750 g/ton without problems.

[4] = system: digestive bacterial diseases in pigs; assay: SMAA in feed against enteric processes in swine; format: in vivo; details: 400-600 g per ton of feed
[5] = system: Clostridium, E. coli, and Salmonella; assay: treatment of ovine livestock with soluble SMAA in drinking water; format: in vivo
Procedure: In another preferred embodiment of the invention, soluble SMAA is applied with drinking water. This application is especially useful for the treatment of enteric bacterial processes, mainly Clostridium, E. coli, and Salmonella. […] Incompatibilities with other medicaments are unknown. A withdrawal period before slaughter is not necessary. When non-absorbable derivatives of sulfadimidine are added to drinking water, they are not often associated with other molecules. […] The usual dose ranges from 550-1100 g/2000 liters of water for 4 to 6 days. The availability of a soluble form makes it possible to administer the product in a milk substitute. In this case the dosage should be established in relation to the consumption of powdered milk substitutes.

## COc1cc(NS(=O)(=O)c2ccc(N)cc2)nc(OC)n1 [Sulfadimethoxine]
Coccidia; efficacy remark, rabbits
  Observations: Very interesting in mixed infections
Coccidia; rabbit, in vivo
  Observations: requires a period of withdrawal before slaughter

## Cc1cc(C)nc(NS(=O)(=O)c2ccc(N)cc2)n1 [Sulfadimidine, 2-(4-aminobenzenesulfonamido)-4,6-dimethylpyrimidine]
[1]
  withdrawal period: 28 days
Coccidia; effect on mortality, rabbits
  Observations: This treatment curtails mortality

## Colistin
Digestive syndrome; effect on mortality
  Observations: Colistin reduces mortality

## CCN1CCN(c2cc3c(cc2F)c(=O)c(C(=O)O)cn3C2CC2)CC1 [Enrofloxacin]
Digestive syndrome; efficacy remark
  Observations: Effective

## Cc1cc(C)nc(NS(=O)(=O)c2ccc(NC(=O)/C=C\C(=O)O)cc2)n1 [SMAA, 4,6-dimethyl-2-N^4-maleylsulfanilamidopyrimidine]
[2]
  residue level in meat: below 30 ppb
Eimeria
  mortality, weight gain, and conversion index: best results
C. perfringens; end of trial (4 weeks), due to undetermined causes
  mortality: lower than 0.3%
C. perfringens; end of trial (4 weeks), five thousand lambs, richer feed (1.03 UFC)
  enterotoxemia in the livestock: absent
C. perfringens; trial of 4 weeks
  watery diarrhea caused by E. coli, Salmonella dysentery, or coccidiosis: no case
Serpulina hyodisenteriae
  results in swine: good results
Coccidia; efficacy remark, rabbits
  Observations: most effective in mixed infections with E. coli
Coccidia; rabbit, in vivo
  Observations: Treatment can be extended up to 3 weeks, if given in low doses, without risk of toxicity or residues in carcasses
Solubility in water; listed as free acid of SMAA
  solubility in water: essentially insoluble
[3]
  dysbacteriosis: no problems of dysbacteriosis have appeared
Digestive syndrome; duration of treatment and toxicity
  Observations: Treatment can be prolonged without risk of toxicity
Digestive syndrome; effect on mortality
  Observations: This treatment curtails mortality
Digestive syndrome; efficacy remark
  Observations: The most effective agent in mixed infections by Coccidia
[4]
  results in swine: good results

## COc1cc(NS(=O)(=O)c2ccc(NC(=O)/C=C\C(=O)O)cc2)nc(OC)n1 [Sulfadimethoxine maleic acid amide]
Coccidia; efficacy remark, rabbits
  Observations: Very interesting in mixed infections
Coccidia; rabbit, in vivo
  Observations: Treatments can continue for 21 days without risk of toxicity or residues in carcasses

## O=C1OCCN1/N=C/c1ccc([N+](=O)[O-])o1 [Furazolidone]
Digestive syndrome; efficacy remark
  Observations: Effective.

## Neomycin
Digestive syndrome; efficacy remark
  Observations: Efficacious against moderately pathogenic strains.

## Cc1cc(C)nc(NS(=O)(=O)c2ccc(NC(=O)/C=C\C(=O)O)cc2)n1 [soluble SMAA]
[5]; even at high doses
  dysbacteriosis: no problems of dysbacteriosis have appeared
[5]; usually 4 to 6 days
  treatment of coccidiosis outbreaks: highly effective
Solubility in water; listed as sodium salt
  solubility in water: essentially soluble
